Measured values as given in patent publication US12029739B2, “SHP2 inhibitor and use thereof” (KANAPH THERAPEUTICS INC., priority 2021, dated 2024).
Where two headings read alike, the source gives them in different places.

Legend:
[1] = biological target: T1, SHP2 (full length) (Homo sapiens, UniProt Q06124); assay: Phosphatase assay (PTPase assay) with DiFMUP substrate; assay type: biochemical; details: SHP2 activated with SHP2 activating peptide, DiFMUP 80 μM, 2 hours, fluorescence
T1 construct: SHP2 (full length, diluted to 100 pM final concentration in reaction buffer, BPS bioscience, US); purchased BPS bioscience, US
T1 sequence (Q06124 1-593): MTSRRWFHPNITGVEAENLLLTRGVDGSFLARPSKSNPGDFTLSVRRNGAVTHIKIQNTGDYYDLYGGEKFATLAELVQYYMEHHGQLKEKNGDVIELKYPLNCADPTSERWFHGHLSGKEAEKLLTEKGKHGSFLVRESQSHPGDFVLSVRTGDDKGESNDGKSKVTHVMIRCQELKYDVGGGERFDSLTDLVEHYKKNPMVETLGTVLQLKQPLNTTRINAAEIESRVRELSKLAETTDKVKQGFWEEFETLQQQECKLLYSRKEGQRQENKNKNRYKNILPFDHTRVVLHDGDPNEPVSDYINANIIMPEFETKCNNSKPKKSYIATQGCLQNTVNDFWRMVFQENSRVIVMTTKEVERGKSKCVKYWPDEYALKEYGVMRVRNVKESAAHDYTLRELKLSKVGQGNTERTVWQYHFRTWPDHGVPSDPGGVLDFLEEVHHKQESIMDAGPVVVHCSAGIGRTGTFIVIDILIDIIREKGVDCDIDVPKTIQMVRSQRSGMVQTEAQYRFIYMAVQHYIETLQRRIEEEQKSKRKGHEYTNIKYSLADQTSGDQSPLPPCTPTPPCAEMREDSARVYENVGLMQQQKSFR

[2] = system: phospho-ERK in MIA PaCa2 or H358 cells; assay: Phospho-ERK assay (AlphaLisa); assay type: cell-based
[3] = 1.5 h, MIA PaCa2 or H358 cells, compound incubated 1.5 hours, read-out: IC50 (p-ERK)
[4] = MIA PaCa2 or H358 cells, compound incubated 1.5 hours, read-out: IC50 (p-ERK)
[5] = 1.5 h, read-out: IC50 (p-ERK, nM)

Row | SMILES | IC50 ([1]; read-out: IC50 (PTPase aS say)) [nM] | IC50 [2, 3] [nM] | IC50 [2, 4] [nM] | IC50 ([1]; IC50 (PTPase aS say, nM)) [nM] | IC50 [2, 5] [nM]
1 | COCCn1cnc2ccc(Sc3nc(C(N)=O)c(N4CCC5(CC4)CO[C@@H](C)[C@H]5N)nc3N)c(Cl)c2c1=O [Example 154, 5-amino-3-[(3S,4S)-4-amino-3-methyl-2-oxa-8-azaspiro[4.5]decan-8-yl]-6-[5-chloro-3-(2-methoxyethyl)-4-oxo-quinazolin-6-yl]sulfanyl-pyrazine-2-carboxamide] | 3 to 100 | 45 to 1500 | – | – | –
2 | COCCn1cnc2ccc(Sc3cnc(N4CCC5(CC4)Cc4ncsc4C5N)cn3)c(Cl)c2c1=O (stereo in doubt) [Example 145, 6-[5-[(6R)-6-aminospiro[4,6-dihydrocyclopenta[d]thiazole-5,4′-piperidin]-1′-yl]pyrazin-2-yl]sulfanyl-5-chloro-3-(2-methoxyethyl)quinazolin-4-one] | 3 to 100 | – | 45 to 1500 | – | –
3 | C[C@@H]1OCC2(CCN(c3cnc(Sc4cccc(S(=O)(=O)F)c4Cl)cn3)CC2)[C@@H]1N [Example 11, 3-((5-((3S,4S)-4-amino-3-methyl-2-oxa-8-azaspiro[4.5]decan-8-yl)pyrazin-2-yl)thio)-2-chlorobenzenesulfonyl fluoride] | – | – | – | < 3 | < 45
4 | COCCn1cnc2ccc(Sc3cnc(N4CCC5(CC4)Cc4scnc4[C@H]5N)c(C(N)=O)n3)c(Cl)c2c1=O [Example 172, (S)-3-(4-amino-4,6-dihydrospiro[cyclopenta[d]thiazole-5,4′-piperidin]-1′-yl)-6-((5-chloro-3-(2-methoxyethyl)-4-oxo-3,4-dihydroquinazolin-6-yl)thio)pyrazine-2-carboxamide] | < 3 | < 45 | – | – | –
5 | COc1cccc(Cc2nc3ccc(Sc4cnc(N5CCC6(CC5)CO[C@@H](C)[C@H]6N)cn4)c(Cl)c3[nH]2)c1 [Example 135] | > 100 | > 1500 | – | – | –
6 | COCCn1cnc2ccc(Sc3cnc(N4CCC5(CC4)Cc4ncccc4[C@H]5N)cn3)c(Cl)c2c1=O [Example 108] | 3 to 100 | 45 to 1500 | – | – | –
7 | C[C@@H]1OCC2(CCN(c3cnc(Sc4ccc5ncn(CCCO)c(=O)c5c4Cl)cn3)CC2)[C@@H]1N [Example 63, 6-((5-((3S,4S)-4-amino-3-methyl-2-oxa-8-azaspiro[4.5]decan-8-yl)pyrazin-2-yl)thio)-5-chloro-3-(3-hydroxypropyl)quinazolin-4(3H)-one] | < 3 | < 45 | – | – | –
8 | CC(C)(O)Cn1cnc2ccc(Sc3cnc(N4CCC5(CC4)Cc4ncsc4[C@@H]5N)cn3)c(Cl)c2c1=O [Example 146] | 3 to 100 | 45 to 1500 | – | – | –
9 | C[C@@H]1OCC2(CCN(c3cnc(Sc4ccc5ncn(Cc6ccccc6)c(=O)c5c4Cl)cn3)CC2)[C@@H]1N [Example 18, 6-((5-((3S,4S)-4-amino-3-methyl-2-oxa-8-azaspiro[4.5]decan-8-yl)pyrazin-2-yl)thio)-3-benzyl-5-chloroquinazolin-4(3H)-one] | < 3 | – | < 45 | – | –
10 | CC(=O)Cn1cnc2ccc(Sc3cnc(N4CCC5(CC4)CO[C@@H](C)[C@H]5N)cn3)c(Cl)c2c1=O [Example 92, 6-((5-((3S,4S)-4-amino-3-methyl-2-oxa-8-azaspiro[4.5]decan-8-yl)pyrazin-2-yl)thio)-5-chloro-3-(2-oxopropyl)quinazolin-4(3H)-one] | < 3 | < 45 | – | – | –
11 | Cn1cnc2ccc(Sc3cnc(N4CCC(C)(CN)CC4)cn3)c(Cl)c2c1=O [Example 15, 6-((5-(4-(aminomethyl)-4-methylpiperidin-1-yl)pyrazin-2-yl)thio)-5-chloro-3-methylquinazolin-4(3H)-one] | 3 to 100 | 45 to 1500 | – | – | –
12 | C[C@@H]1OCC2(CCN(c3cnc(Sc4ccc5ncn(Cc6cccc(S(=O)(=O)F)c6)c(=O)c5c4Cl)cn3)CC2)[C@@H]1N [Example 19, 3-((6-((5-((3S,4S)-4-amino-3-methyl-2-oxa-8-azospiro[4.5]decan-8-yl)pyrazin-2-yl)thio)-5-chloro-4-oxoquinazolin-3(4H)-yl)methyl)benzenesulfonyl fluoride] | – | – | – | < 3 | 45 to 1500
13 | Cn1c(N2CCCN(CCN)CC2)nc(N)c(Sc2cccc(Cl)c2Cl)c1=O [Example 200, 6-amino-2-(4-(2-aminoethyl)-1,4-diazepan-1-yl)-5-((2,3-dichlorophenyl)thio)-3-methylpyrimidin-4(3H)-one] | > 100 | > 1500 | – | – | –
14 | C[C@@H]1OCC2(CCN(c3cnc(Sc4ccc5ncn(CC6CCC(=O)CC6)c(=O)c5c4Cl)cn3)CC2)[C@@H]1N [Example 121] | < 3 | < 45 | – | – | –
15 | Cn1c(N2CCCN(CCCN)CC2)nc(N)c(Sc2cccc(Cl)c2Cl)c1=O [Example 201, 6-amino-2-(4-(3-aminopropyl)-1,4-diazepan-1-yl)-5-((2,3-dichlorophenyl)thio)-3-methylpyrimidin-4(3H)-one] | > 100 | > 1500 | – | – | –
16 | C[C@@H]1OCC2(CCN(c3cnc(Sc4ccc5ncn(CC(=O)c6cccnc6)c(=O)c5c4Cl)cn3)CC2)[C@@H]1N [Example 90, 6-((5-((3S,4S)-4-amino-3-methyl-2-oxa-8-azaspiro[4.5]decan-8-yl)pyrazin-2-yl)thio)-5-chloro-3-(2-oxo-2-(pyridin-3-yl]ethyl)quinazolin-4(3H)-one] | < 3 | < 45 | – | – | –
17 | COC(C)Cn1cnc2ccc(Sc3cnc(N4CCC5(CC4)CO[C@@H](C)[C@H]5N)cn3)c(Cl)c2c1=O (stereo partly drawn) [Example 120] | < 3 | < 45 | – | – | –
18 | N[C@@H]1c2cccnc2CC12CCN(c1cnc(Sc3ccc4ncn(CC5(F)COC5)c(=O)c4c3Cl)cn1)CC2 [Example 140, (S)-6-((5-(5-amino-5,7-dihydrospiro[yclopenta[b]pyridine-6,4′-piperidin]-1′-yl)pyrazin-2-yl)thio)-5-chloro-3-((3-fluorooxetan-3-yl)methyl)quinazolin-4(3H)-one] | < 3 | < 45 | – | – | –
19 | C[C@@H]1OCC2(CCN(c3cnc(Sc4ccc5nc(OC6CCOC6)[nH]c5c4Cl)cn3)CC2)[C@@H]1N (stereo partly drawn) [Example 126, (3S,4S)-8-(5-((7-chloro-2-((tetrahydrofuran-3-yl)oxy)-1H-benzo[d]imidazol-6-yl)thio)pyrazin-2-yl)-3-methyl-2-oxa-8-azaspiro[4,5]decan-4-amine] | 3 to 100 | 45 to 1500 | – | – | –
20 | Cn1c(N2CCOC(CN)C2)nc(N)c(Sc2cccc(Cl)c2Cl)c1=O (stereo not drawn) [Example 198, 6-amino-2-(2-(aminomethyl)morpholino)-5-((2,3-dichlorophenyl)thio)-3-methylpyrimidin-4(3H)-one] | > 100 | > 1500 | – | – | –
21 | NC(=O)c1nc(Sc2ccc3ncn(CC4CCOCC4)c(=O)c3c2Cl)cnc1N1CCC2(CC1)Cc1ncsc1[C@H]2N [Example 174, (S)-3-(6-amino-4,6-dihydrospiro[cyclopenta[d]thiazole-5,4′-piperidin]-1′-yl)-6-((5-chloro-4-oxo-3-((tetrahydro-2H-pyran-4-yl)methyl)-3,4-dihydroquinazolin-6-yl)thio)pyrazine-2-carboxamide] | < 3 | < 45 | – | – | –
22 | Cn1c(N2CCN(CC(N)CCc3ccccc3)CC2)nc(N)c(Sc2cccc(Cl)c2Cl)c1=O (stereo not drawn) [Example 189, 6-amino-2-(4-(2-amino-4-phenylbutyl)piperazin-1-yl)-5-((2,3-dichlorophenyl)thio)-3-methylpyrimidin-4(3H)-one] | > 100 | > 1500 | – | – | –
23 | C[C@@H]1OCC2(CCN(c3cnc(Sc4ccc5nn(Cc6ccccc6)cc5c4Cl)cn3)CC2)[C@@H]1N [Example 49, (3S,4S)-8-(5-((2-benzyl-4-chloro-2H-indazol-5-yl)thio)pyrazin-2-yl)-3-methyl-2-oxa-8-azaspiro[4.5]decan-4-amine] | 3 to 100 | > 1500 | – | – | –
24 | C[C@@H]1OCC2(CCN(c3cnc(Sc4ccc5ncn(CC6(O)CCOCC6)c(=O)c5c4Cl)cn3)CC2)[C@@H]1N [Example 83, 6-((5-((3S,4S)-4-amino-3-methyl-2-oxa-8-azaspiro[4.5]decan-8-yl)pyrazin-2-yl)thio)-5-chloro-3-((4-hydroxytetrahydro-2H-pyran-4-yl)methyl)quinazolin-4(3H)-one] | < 3 | < 45 | – | – | –
25 | Cn1c(N2CCN[C@@H](CN)C2)nc(N)c(Sc2cccc(Cl)c2Cl)c1=O [Example 196] | > 100 | > 1500 | – | – | –
26 | CC(C)OCCn1cnc2ccc(Sc3cnc(N4CCC5(CC4)CO[C@@H](C)[C@H]5N)cn3)c(Cl)c2c1=O [Example 116, 6-((5-(3S,4S)-4-amino-3-methyl-2-oxa-8-azaspiro[4,5]decan-8-yl)pyrazin-2-yl)thio)-5-chloro-(3-(2-isopropoxyethyl)quinazolin-4(3H)-one] | < 3 | < 45 | – | – | –
27 | CCOC(=O)c1cccc(Sc2c(N)nc(N3CCC(C)(N)CC3)n(C)c2=O)c1Cl [Example 2, ethyl 3-((4-amino-2-(4-amino-4-methylpiperidin-1-yl)-1-methyl-6-oxo-1,6-dihydropyrimidin-5-yl)thio)-2-chlorobenzoate] | > 100 | – | 45 to 1500 | – | –
